Results from ChEMBL document CHEMBL4507272 (2021).

Tests used:
[1] = target: Calcium/calmodulin-dependent protein kinase type 1G (Homo sapiens) (UniProt Q96NX5); conditions: Compound concentration 1000.0 nM
[2] = target: BMP-2-inducible protein kinase (Homo sapiens) (UniProt Q9NSY1); conditions: Compound concentration 1000.0 nM
[3] = system: Receptor-type tyrosine-protein kinase FLT3 (Homo sapiens), P36888 [D835Y]; conditions: Compound concentration 1000.0 nM
[4] = target: Cyclin-dependent kinase 8 (Homo sapiens) (UniProt P49336); conditions: Compound concentration 1000.0 nM
[5] = target: Dual specificity protein kinase TTK (Homo sapiens) (UniProt P33981); conditions: Compound concentration 1000.0 nM
[6] = target: Tyrosine-protein kinase receptor UFO (Homo sapiens) (UniProt P30530); conditions: Compound concentration 1000.0 nM
[7] = target: Serine/threonine-protein kinase Sgk1 (Homo sapiens) (UniProt O00141); conditions: Compound concentration 1000.0 nM
[8] = target: MAP kinase-interacting serine/threonine-protein kinase 2 (Homo sapiens) (UniProt Q9HBH9); conditions: Compound concentration 1000.0 nM
[9] = target: Tyrosine-protein kinase receptor TYRO3 (Homo sapiens) (UniProt Q06418); conditions: Compound concentration 1000.0 nM
[10] = target: Mitogen-activated protein kinase 13 (Homo sapiens) (UniProt O15264); conditions: Compound concentration 1000.0 nM
[11] = target: Protein kinase C theta type (Homo sapiens) (UniProt Q04759); conditions: Compound concentration 1000.0 nM
[12] = system: Tyrosine-protein kinase ABL1 (Homo sapiens), P00519 [T315I]; conditions: Compound concentration 1000.0 nM
[13] = target: Tyrosine-protein kinase ABL2 (Homo sapiens) (UniProt P42684); conditions: Compound concentration 1000.0 nM
[14] = target: Serine/threonine-protein kinase WNK4 (Homo sapiens) (UniProt Q96J92); conditions: Compound concentration 1000.0 nM
[15] = target: D(2) dopamine receptor (Homo sapiens) (UniProt P14416); conditions: Compound concentration 10.0 uM
[16] = system: Phosphatidylinositol 4,5-bisphosphate 3-kinase catalytic subunit alpha isoform (Homo sapiens), P42336 [H1047L]; conditions: Compound concentration 1000.0 nM
[17] = target: LIM domain kinase 2 (Homo sapiens) (UniProt P53671); conditions: Compound concentration 1000.0 nM
[18] = target: Serine/threonine-protein kinase MRCK gamma (Homo sapiens) (UniProt Q6DT37); conditions: Compound concentration 1000.0 nM
[19] = target: Myosin-IIIa (Homo sapiens) (UniProt Q8NEV4); conditions: Compound concentration 1000.0 nM
[20] = target: Ephrin type-B receptor 3 (Homo sapiens) (UniProt P54753); conditions: Compound concentration 1000.0 nM
[21] = target: Mitogen-activated protein kinase 1 (Homo sapiens) (UniProt P28482); conditions: Compound concentration 1000.0 nM
[22] = target: Maternal embryonic leucine zipper kinase (Homo sapiens) (UniProt Q14680); conditions: Compound concentration 1000.0 nM
[23] = target: Cyclin-dependent kinase 11A (Homo sapiens) (UniProt Q9UQ88); conditions: Compound concentration 1000.0 nM
[24] = target: Cyclin-dependent kinase 14 (Homo sapiens) (UniProt O94921); conditions: Compound concentration 1000.0 nM
[25] = target: Sodium-dependent serotonin transporter (Homo sapiens) (UniProt P31645); conditions: Compound concentration 10.0 uM
[26] = target: Dual specificity tyrosine-phosphorylation-regulated kinase 1B (Homo sapiens) (UniProt Q9Y463); conditions: Compound concentration 1000.0 nM
[27] = target: Muscarinic acetylcholine receptor M3 (Homo sapiens) (UniProt P20309); conditions: Compound concentration 10.0 uM
[28] = system: Receptor-type tyrosine-protein kinase FLT3 (Homo sapiens), P36888 [UNDEFINED MUTATION]; conditions: Compound concentration 1000.0 nM
[29] = target: Ephrin type-A receptor 4 (Homo sapiens) (UniProt P54764); conditions: Compound concentration 1000.0 nM
[30] = target: Casein kinase I isoform gamma-2 (Homo sapiens) (UniProt P78368); conditions: Compound concentration 1000.0 nM
[31] = target: 3-phosphoinositide-dependent protein kinase 1 (Homo sapiens) (UniProt O15530); conditions: Compound concentration 1000.0 nM
[32] = system: Receptor-type tyrosine-protein kinase FLT3 (Homo sapiens), P36888 [N841I]; conditions: Compound concentration 1000.0 nM
[33] = target: Fibroblast growth factor receptor 3 (Homo sapiens) (UniProt P22607); conditions: Compound concentration 1000.0 nM
[34] = target: Serine/threonine-protein kinase 10 (Homo sapiens) (UniProt O94804); conditions: Compound concentration 1000.0 nM
[35] = target: Serine/threonine-protein kinase 32A (Homo sapiens) (UniProt Q8WU08); conditions: Compound concentration 1000.0 nM
[36] = target: Serine/threonine-protein kinase 32B (Homo sapiens) (UniProt Q9NY57); conditions: Compound concentration 1000.0 nM
[37] = target: Activin receptor type-2A (Homo sapiens) (UniProt P27037); conditions: Compound concentration 1000.0 nM
[38] = target: Mitogen-activated protein kinase 8 (Homo sapiens) (UniProt P45983); conditions: Compound concentration 1000.0 nM
[39] = target: 5'-AMP-activated protein kinase catalytic subunit alpha-2 (Homo sapiens) (UniProt P54646); conditions: Compound concentration 1000.0 nM
[40] = target: Platelet-derived growth factor receptor beta (Homo sapiens) (UniProt P09619); conditions: Compound concentration 1000.0 nM
[41] = target: Serine/threonine-protein kinase 3 (Homo sapiens) (UniProt Q13188); conditions: Compound concentration 1000.0 nM
[42] = target: Calcium/calmodulin-dependent protein kinase type II subunit delta (Homo sapiens) (UniProt Q13557); conditions: Compound concentration 1000.0 nM
[43] = target: Serine/threonine-protein kinase ULK3 (Homo sapiens) (UniProt Q6PHR2); conditions: Compound concentration 1000.0 nM
[44] = target: Cyclin-G-associated kinase (Homo sapiens) (UniProt O14976); conditions: Compound concentration 1000.0 nM
[45] = target: Insulin receptor (Homo sapiens) (UniProt P06213); conditions: Compound concentration 1000.0 nM

Sequence of Sodium-dependent serotonin transporter (Homo sapiens) (P31645 whole entry, looked up): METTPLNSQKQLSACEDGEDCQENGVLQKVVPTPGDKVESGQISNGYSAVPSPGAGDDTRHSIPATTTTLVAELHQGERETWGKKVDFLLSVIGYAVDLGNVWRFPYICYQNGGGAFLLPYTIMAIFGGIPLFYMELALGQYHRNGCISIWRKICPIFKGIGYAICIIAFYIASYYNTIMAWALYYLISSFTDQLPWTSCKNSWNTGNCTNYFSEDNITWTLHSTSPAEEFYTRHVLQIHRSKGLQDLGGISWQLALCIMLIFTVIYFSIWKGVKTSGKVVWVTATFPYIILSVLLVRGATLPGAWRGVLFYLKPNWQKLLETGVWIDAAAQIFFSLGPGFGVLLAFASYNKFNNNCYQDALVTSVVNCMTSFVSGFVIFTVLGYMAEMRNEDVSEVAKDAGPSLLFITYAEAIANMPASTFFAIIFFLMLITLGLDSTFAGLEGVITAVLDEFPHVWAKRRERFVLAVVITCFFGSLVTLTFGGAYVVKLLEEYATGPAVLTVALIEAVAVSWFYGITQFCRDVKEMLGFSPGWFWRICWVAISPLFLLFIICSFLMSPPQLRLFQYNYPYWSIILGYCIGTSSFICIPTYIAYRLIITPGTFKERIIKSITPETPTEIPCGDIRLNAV
Sequence of Dual specificity tyrosine-phosphorylation-regulated kinase 1B (Homo sapiens) (Q9Y463 whole entry, looked up): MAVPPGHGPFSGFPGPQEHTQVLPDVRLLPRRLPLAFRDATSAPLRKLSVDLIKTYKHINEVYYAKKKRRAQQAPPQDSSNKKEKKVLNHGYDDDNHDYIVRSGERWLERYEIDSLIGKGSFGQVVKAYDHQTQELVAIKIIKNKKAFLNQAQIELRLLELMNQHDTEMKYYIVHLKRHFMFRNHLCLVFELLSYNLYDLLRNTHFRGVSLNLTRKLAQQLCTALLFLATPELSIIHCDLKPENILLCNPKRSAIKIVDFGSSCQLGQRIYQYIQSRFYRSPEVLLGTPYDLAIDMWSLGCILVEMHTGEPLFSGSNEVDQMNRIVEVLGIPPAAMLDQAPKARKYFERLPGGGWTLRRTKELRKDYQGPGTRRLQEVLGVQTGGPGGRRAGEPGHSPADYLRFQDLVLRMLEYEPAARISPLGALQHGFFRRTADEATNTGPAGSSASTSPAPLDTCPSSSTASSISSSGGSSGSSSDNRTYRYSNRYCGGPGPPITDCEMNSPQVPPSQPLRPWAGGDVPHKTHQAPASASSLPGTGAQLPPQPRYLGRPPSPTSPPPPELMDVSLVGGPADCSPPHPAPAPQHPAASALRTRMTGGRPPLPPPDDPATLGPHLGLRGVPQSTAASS
Sequence of Phosphatidylinositol 4,5-bisphosphate 3-kinase catalytic subunit alpha isoform (Homo sapiens), P42336 [H1047L] (P42336 whole entry H1047L, the tested form may be a part, canonical isoform): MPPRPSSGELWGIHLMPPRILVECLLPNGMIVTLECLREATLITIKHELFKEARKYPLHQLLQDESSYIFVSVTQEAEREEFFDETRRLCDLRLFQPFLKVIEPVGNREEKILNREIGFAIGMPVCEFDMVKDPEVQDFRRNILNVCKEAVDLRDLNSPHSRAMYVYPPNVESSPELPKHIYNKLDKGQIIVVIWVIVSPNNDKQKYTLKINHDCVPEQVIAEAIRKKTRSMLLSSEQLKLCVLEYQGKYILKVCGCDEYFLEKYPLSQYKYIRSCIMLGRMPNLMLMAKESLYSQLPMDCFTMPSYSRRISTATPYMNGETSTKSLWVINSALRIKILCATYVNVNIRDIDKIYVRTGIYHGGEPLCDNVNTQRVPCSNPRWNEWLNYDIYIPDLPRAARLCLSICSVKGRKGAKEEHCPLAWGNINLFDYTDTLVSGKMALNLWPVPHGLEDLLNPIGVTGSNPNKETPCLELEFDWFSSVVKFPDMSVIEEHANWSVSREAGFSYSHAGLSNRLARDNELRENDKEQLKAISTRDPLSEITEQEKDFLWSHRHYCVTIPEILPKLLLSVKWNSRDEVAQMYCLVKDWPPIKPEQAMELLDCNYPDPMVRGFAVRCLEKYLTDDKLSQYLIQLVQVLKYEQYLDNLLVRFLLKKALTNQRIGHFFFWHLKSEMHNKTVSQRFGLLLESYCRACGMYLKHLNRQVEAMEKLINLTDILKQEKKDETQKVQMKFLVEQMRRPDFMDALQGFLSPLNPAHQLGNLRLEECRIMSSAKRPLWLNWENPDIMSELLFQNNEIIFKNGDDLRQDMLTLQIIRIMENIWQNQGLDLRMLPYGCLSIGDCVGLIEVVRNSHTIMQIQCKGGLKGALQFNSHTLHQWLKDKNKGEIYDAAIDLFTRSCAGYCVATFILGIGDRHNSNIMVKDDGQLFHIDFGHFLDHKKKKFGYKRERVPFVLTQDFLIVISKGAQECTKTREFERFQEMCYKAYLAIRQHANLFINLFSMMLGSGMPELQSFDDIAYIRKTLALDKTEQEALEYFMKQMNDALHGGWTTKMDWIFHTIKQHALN
Sequence of Maternal embryonic leucine zipper kinase (Homo sapiens) (Q14680 whole entry, looked up): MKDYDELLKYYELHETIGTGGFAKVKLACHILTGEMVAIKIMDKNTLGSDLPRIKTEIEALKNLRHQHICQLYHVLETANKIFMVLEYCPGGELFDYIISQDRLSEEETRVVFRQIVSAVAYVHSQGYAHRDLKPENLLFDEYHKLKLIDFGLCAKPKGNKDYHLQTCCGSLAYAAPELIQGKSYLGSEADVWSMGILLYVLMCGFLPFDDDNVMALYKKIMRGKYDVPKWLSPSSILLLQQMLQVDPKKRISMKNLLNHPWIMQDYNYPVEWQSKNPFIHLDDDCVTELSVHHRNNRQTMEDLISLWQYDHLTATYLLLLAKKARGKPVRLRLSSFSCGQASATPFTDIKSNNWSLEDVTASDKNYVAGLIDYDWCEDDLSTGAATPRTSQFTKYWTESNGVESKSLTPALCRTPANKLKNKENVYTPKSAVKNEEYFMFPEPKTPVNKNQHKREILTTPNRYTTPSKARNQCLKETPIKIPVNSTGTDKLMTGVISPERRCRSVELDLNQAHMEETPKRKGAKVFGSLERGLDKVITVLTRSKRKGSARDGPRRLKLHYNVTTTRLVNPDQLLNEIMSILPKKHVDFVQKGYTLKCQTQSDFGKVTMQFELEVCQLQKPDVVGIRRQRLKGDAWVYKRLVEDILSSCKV
Sequence of Cyclin-dependent kinase 11A (Homo sapiens) (Q9UQ88 whole entry): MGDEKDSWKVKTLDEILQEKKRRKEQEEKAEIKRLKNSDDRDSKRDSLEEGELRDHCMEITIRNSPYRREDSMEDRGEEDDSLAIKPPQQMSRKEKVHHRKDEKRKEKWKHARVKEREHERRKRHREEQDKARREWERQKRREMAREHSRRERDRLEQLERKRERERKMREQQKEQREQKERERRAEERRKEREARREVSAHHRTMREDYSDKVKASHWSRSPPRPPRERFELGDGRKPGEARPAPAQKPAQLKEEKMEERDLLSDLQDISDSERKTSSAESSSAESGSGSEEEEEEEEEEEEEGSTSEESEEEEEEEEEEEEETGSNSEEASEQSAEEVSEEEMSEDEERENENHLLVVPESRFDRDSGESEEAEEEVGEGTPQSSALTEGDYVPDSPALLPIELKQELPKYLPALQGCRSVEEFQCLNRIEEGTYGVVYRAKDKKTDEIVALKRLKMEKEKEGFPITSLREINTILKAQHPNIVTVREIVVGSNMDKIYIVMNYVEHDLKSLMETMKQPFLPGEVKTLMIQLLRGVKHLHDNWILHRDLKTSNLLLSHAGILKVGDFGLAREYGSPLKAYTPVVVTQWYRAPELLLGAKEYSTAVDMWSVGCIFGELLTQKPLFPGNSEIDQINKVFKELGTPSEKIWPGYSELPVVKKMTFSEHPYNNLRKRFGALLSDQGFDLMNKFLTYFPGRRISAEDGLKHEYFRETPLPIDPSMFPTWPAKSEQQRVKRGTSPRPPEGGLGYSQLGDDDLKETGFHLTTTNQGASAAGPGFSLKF
Sequence of Muscarinic acetylcholine receptor M3 (Homo sapiens) (P20309 whole entry, looked up): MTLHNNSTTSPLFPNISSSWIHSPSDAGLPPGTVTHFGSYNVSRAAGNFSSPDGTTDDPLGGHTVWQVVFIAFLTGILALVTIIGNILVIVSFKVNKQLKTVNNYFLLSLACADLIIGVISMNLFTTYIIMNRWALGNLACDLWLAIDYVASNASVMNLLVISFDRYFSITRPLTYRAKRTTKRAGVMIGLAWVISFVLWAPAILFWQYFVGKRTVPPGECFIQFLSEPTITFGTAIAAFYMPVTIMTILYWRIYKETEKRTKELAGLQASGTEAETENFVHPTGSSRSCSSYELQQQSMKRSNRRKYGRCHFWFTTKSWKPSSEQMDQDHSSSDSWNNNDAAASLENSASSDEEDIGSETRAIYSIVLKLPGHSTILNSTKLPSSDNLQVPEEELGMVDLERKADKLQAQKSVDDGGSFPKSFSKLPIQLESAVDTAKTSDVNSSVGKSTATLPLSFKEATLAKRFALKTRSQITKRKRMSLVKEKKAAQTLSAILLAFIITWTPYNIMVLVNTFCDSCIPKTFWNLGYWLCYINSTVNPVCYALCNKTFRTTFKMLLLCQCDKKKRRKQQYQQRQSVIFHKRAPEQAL
Sequence of Mitogen-activated protein kinase 1 (Homo sapiens) (P28482 whole entry): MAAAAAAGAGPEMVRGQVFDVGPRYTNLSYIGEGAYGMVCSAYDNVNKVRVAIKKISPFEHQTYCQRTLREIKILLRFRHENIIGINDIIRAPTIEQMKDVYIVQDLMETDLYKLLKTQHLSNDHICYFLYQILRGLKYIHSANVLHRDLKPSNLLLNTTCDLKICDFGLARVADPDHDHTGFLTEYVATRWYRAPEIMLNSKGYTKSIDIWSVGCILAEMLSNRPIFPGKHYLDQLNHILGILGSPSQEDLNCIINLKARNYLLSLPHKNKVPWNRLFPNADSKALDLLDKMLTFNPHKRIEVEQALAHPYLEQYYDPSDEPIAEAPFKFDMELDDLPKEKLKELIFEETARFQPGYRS

CC(=O)C1=C(C)N(c2cccc(C(F)(F)F)c2)C(=O)N[C@@H]1c1ccc(C#N)nc1 [BAY-678]
inactive: residual activity [1] 100% | residual activity [2] 100% | residual activity [3] 93.9% | residual activity [4] 65.3% | residual activity [5] 97.9% | residual activity [6] 100% | residual activity [7] 100% | residual activity [8] 84.8% | residual activity [9] 66.9% | residual activity [10] 74.6% | residual activity [11] 83.3% | residual activity [12] 100% | residual activity [13] 100% | residual activity [14] 100% | inhibition [15] 0.569% | residual activity [16] 69% | residual activity [17] 91.7% | residual activity [18] 79.3% | residual activity [19] 85.1% | residual activity [20] 100% | residual activity [21] 98.9% | residual activity [22] 88.2% | residual activity [23] 95.7% | residual activity [24] 91.7% | inhibition [25] -2.61% | residual activity [26] 100% | inhibition [27] 10.4% | residual activity [28] 61.2% | residual activity [29] 100% | residual activity [30] 94.6% | residual activity [31] 93.4% | residual activity [32] 73.8% | residual activity [33] 96.4% | residual activity [34] 84.5% | residual activity [35] 100% | residual activity [36] 100% | residual activity [37] 85.7% | residual activity [38] 100% | residual activity [39] 80.4% | residual activity [40] 94% | residual activity [41] 93.1% | residual activity [42] 100% | residual activity [43] 100% | residual activity [44] 97.2% | residual activity [45] 89.3%
